Measurements: publication PMC6044835, “Expression, Purification, and Biochemical Characterization of the Flavocytochrome P450 CYP505A30 from Myceliophthora thermophila” (ACS Omega, 2017)
“And” between values parts separate entries of the source, which are not always exact repeats. Equal values may be shown once. Read-outs that look alike come from different tables or passages of the source.

How the values were obtained:
CYP505A30 [1] = molecular target: T1, CYP505A30 (Thermothelomyces thermophilus, UniProt G2QDZ3); test: UV–visible spectral binding titration with intact CYP505A30; conditions: for HS (%): extent of HS heme iron accumulated, intact CYP505A30, estimated to nearest 5%
CYP505A30 [2] = molecular target: T1, CYP505A30; conditions: CYP505A30, GC–MS
P450 BM3 [3] = conditions: P450 BM3, similar conditions; cited from earlier work
P450 BM3 [4] = system: P450 BM3; parameters: method as in PMID 1727637; conditions: cited from earlier work
CYP505A30 [5] = molecular target: T1, CYP505A30; test: Steady-state fatty acid-dependent NADPH oxidation
CYP505A30 heme domain [6] = molecular target: T2, CYP505A30 heme domain (Thermothelomyces thermophilus, UniProt G2QDZ3); test: UV–visible spectral binding titration with CYP505A30 heme domain; conditions: for HS (%): extent of HS heme iron accumulated, heme domain, estimated to nearest 5%
CYP505A30 [7] = molecular target: T1, CYP505A30
CYP505A30 heme domain [8] = molecular target: T2, CYP505A30 heme domain
CYP505A30 [9] = molecular target: T1, CYP505A30; test: Stopped-flow kinetics of flavin reduction by NAD(P)H; type: biochemical, Myceliophthora thermophila
CYP505A30 [10] = molecular target: T1, CYP505A30; conditions: for kcat: reduction of the electron acceptor, 25 °C
[11] = molecular target: Myceliophthora thermophila flavocytochrome P450 CYP505A30 (P450-CPR fusion enzyme), intact (Myceliophthora thermophila); test: SEC-MALS; 5 mg protein samples in buffer A (50 mM potassium phosphate, pH 7.0) containing 200 mM KCl; integrated Superdex 200 gel filtration followed at once by a DAWN EOS MALLS detector; monomer and dimer of the intact enzyme
CYP505A30 [12] = molecular target: T1, CYP505A30; test: UV-visible spectral binding titration of imidazole-type inhibitors (Soret red shift by distal heme iron coordination) to intact CYP505A30 in 50 mM potassium phosphate pH 7.0 (25 °C stated for the substrate titrations), hyperbolic fit for bifonazole.; parameters: gene MYCTH_101224; intact CYP505A30, amino acids 1-1080, N-terminal hexahistidine tag (pET15b), expressed in E. coli; conditions: read-out: KD values (azole/imidazole inhibitors)
Excerpt: Figure 5 UV–visible spectroscopic analysis of CYP505A30 and its heme domain. […] The sodium dithionite-reduced ferrous form (dotted line) has its Soret maximum at 411 nm and a single visible region absorbance band at 546 nm. The ferrous, CO-bound form (thin solid line) has its Soret maximum at 450 nm and a visible band at 550 nm. The ferric heme NO-bound form (dashed line) has a Soret maximum at 434 nm and visible region bands at 543 and 573 nm. […] For clarity, the visible region is also shown at 5× magnification. […] The substrate-free heme domain (4.9 μM) is shown with a thick solid line. […] Each ΔAbs point is derived from the value of the difference peak absorbance maximum (at 388 nm) minus the difference trough absorbance minimum (at 417 nm). […]
The wavelengths of the absorbance minimum and maximum were identified from the difference spectra, and a maximal induced absorbance change (ΔAmax) at each point in the titration was determined by subtracting the absorbance at the wavelength minimum from that at the absorbance maximum, using the same wavelength pair throughout each titration. ΔAmax values were then plotted against ligand concentration, and data were fitted using either a hyperbolic (Michaelis–Menten) function or the Morrison function for tight-binding ligands, to determine dissociation constants (KD values), as described previously.[38],[52]

[13] = substrate: CCCCC/C=C\C/C=C\C/C=C\C/C=C\CCCC(=O)O; test: purified protein, by the assay type; conditions: other: fatty acid-induced NADPH oxidation, 25 °C
[14] = substrate: CCCCCCCCCCCC(=O)O; test: purified protein, by the assay type; conditions: other: fatty acid-induced NADPH oxidation, 25 °C
[15] = substrate: CCCCCCCCCCCCCC(=O)O; test: purified protein, by the assay type; conditions: other: fatty acid-induced NADPH oxidation, 25 °C
[16] = substrate: CCCCCCCCCCCCCCC(=O)O; test: purified protein, by the assay type; conditions: other: fatty acid-induced NADPH oxidation, 25 °C
[17] = fatty acid-induced NADPH oxidation, 25 °C, 200 μM NADPH
[18] = KD, substrate binding to intact CYP505A30, heme absorbance change, 25 °C
[19] = fatty acid-dependent NADPH oxidation

Clc1ccc(COC(Cn2ccnc2)c2ccc(Cl)cc2Cl)cc1 (stereo not shown) [econazole]
Kd (CYP505A30 [1]; KD): 10 ± 0.9 µM

CCCCCCCCCCCCCC(=O)O [tetradecanoic acid]
ω-1 hydroxylated product proportion (CYP505A30 [2]): 63% | ω-2 hydroxylated product proportion (CYP505A30 [2]): ~28% | ω-3 hydroxylated product proportion (CYP505A30 [2]): 9% | ω-1 hydroxylated product proportion (CYP505A30 [2]; listed as myristic acid): approximately 63% | kcat (P450 BM3 [3]): 30.8 ± 1.5 s^–1 | ω-1 hydroxylated product proportion (P450 BM3 [4]): 58% | ω-2 hydroxylated product proportion (P450 BM3 [4]): 21% | ω-3 hydroxylated product proportion (P450 BM3 [4]): 21% | kcat (CYP505A30 [5]; [17]): 1.21 ± 0.1 s^–1 | Kd (CYP505A30 [1]; [18]): 7.4 ± 0.2 µM | HS (%) (CYP505A30 [1]): 80% | Kd (CYP505A30 heme domain [6]): 3.9 ± 0.3 µM | HS (%) (CYP505A30 heme domain [6]): 85%

c1ccc(-c2ccc(C(c3ccccc3)n3ccnc3)cc2)cc1 (stereo not shown) [bifonazole]
Kd (CYP505A30 [1]; KD): 69 µM and 69.1 µM

CCCCCCCCCC(=O)O [decanoic acid]
HS (%) (CYP505A30 [7]): 30% | Kd (CYP505A30 [1]; KD): 21.1 ± 2 µM

CCCCCCCCCCCCC(=O)O [tridecanoic acid]
HS (%) (CYP505A30 [7]): 65% | HS (%) (CYP505A30 heme domain [8]): 30% | kcat (CYP505A30 [5]; [17]): 5.0 ± 0.3 s^–1 | Kd (CYP505A30 [1]; [18]): 2.7 ± 0.3 µM | Kd (CYP505A30 heme domain [6]): 4.8 ± 0.3 µM

NC(=O)C1=CN([C@@H]2O[C@H](COP(=O)(O)OP(=O)(O)OC[C@H]3O[C@@H](n4cnc5c(N)ncnc54)[C@H](O)[C@@H]3O)[C@@H](O)[C@H]2O)C=CC1 [NADH, reduced nicotinamide adenine dinucleotide]
klim flavin reduction (CYP505A30 [9]; 10 °C): 42.0 ± 3.2 s^–1

cytochrome c: Cytochrome c (horse heart; Sigma-Aldrich), electron acceptor substrate for CPR enzymes
fold slower kcat than the BM3 enzyme (CYP505A30 [10]; BM3 under similar conditions): approximately 7.5 fold | Km (CYP505A30 [10]; read-out: KM (electron acceptor), NADPH as electron donor): 79.3 ± 10.3 µM | kcat (CYP505A30 [10]; NADH as electron donor): 29.5 ± 2.4 s^–1 | kcat (CYP505A30 [10]; NADPH as electron donor): 29.7 ± 0.7 s^–1

CCCCCCCCCCCCCCCC(=O)O [hexadecanoic acid]
Kd (CYP505A30 [1]; [18]): 10.5 ± 0.2 µM | HS (%) (CYP505A30 [1]): 80% | Kd (CYP505A30 heme domain [6]): 1 ± 0.4 µM | HS (%) (CYP505A30 heme domain [6]): 55%

CCCCCCCCCCCCCCC(=O)O [pentadecanoic acid]
KD (Michaelis–Menten fit of steady-state NADPH oxidation) (CYP505A30 [5]; [19]): 7.8 µM | kcat (CYP505A30 [5]; [19]): ~450 min^–1 | Kd (CYP505A30 [1]): 4.4 ± 0.6 µM | HS (%) (CYP505A30 [1]): 85% | Kd (CYP505A30 heme domain [6]): 1.1 ± 0.3 µM | HS (%) (CYP505A30 heme domain [6]): 90%

c1ccc(-n2ccnc2)cc1 [1-phenylimidazole]
Kd (CYP505A30 [1]; KD, imidazole-based inhibitors, distal coordination of heme iron, intact CYP505A30): 3.4 ± 0.2 µM

CCCCCCCCCCCCCCCC(=O)NCC(=O)O [N-palmitoylglycine]
HS (%) (CYP505A30 [1]): 95% | HS (%) (CYP505A30 heme domain [6]): 75%

NC(=O)C1=CN([C@@H]2O[C@H](COP(=O)(O)OP(=O)(O)OC[C@H]3O[C@@H](n4cnc5c(N)ncnc54)[C@H](OP(=O)(O)O)[C@@H]3O)[C@@H](O)[C@H]2O)C=CC1 [NADPH, reduced nicotinamide adenine dinucleotide phosphate]
gradient of kobs vs temperature (CYP505A30 [9]; 10 to 35 °C, 1 mM NADPH): 14.5 ± 1.5 s^–1 °C^–1 | klim flavin reduction (CYP505A30 [9]; 10 °C): ~82 s^–1 | kobs flavin reduction (CYP505A30 [9]; 10 °C, across [NADPH] range up to 1.2 mM): 82.4 ± 9.1 s^–1 | klim flavin reduction (CYP505A30 [9]; 25 °C): ~250 s^–1 | kobs flavin reduction (highest rate constant) (CYP505A30 [9]; 35 °C, 1 mM NADPH): 441 ± 11 s^–1

CCCCCCCCCCCCCCCCCC(=O)O [octadecanoic acid]
Kd (CYP505A30 [1]): 11.9 ± 1 µM | HS (%) (CYP505A30 [1]): 15% | Kd (CYP505A30 heme domain [6]): 5 ± 0.7 µM | HS (%) (CYP505A30 heme domain [6]): 10%

Myceliophthora thermophila flavocytochrome P450 CYP505A30 (P450-CPR fusion enzyme), intact
stoichiometry N [11]: 2

CCCCCCCCCCCCCCCCC(=O)O [heptadecanoic acid]
Kd (CYP505A30 [1]): 4.1 ± 0.7 µM | HS (%) (CYP505A30 [1]): 10% | Kd (CYP505A30 heme domain [6]): 8.7 ± 0.8 µM | HS (%) (CYP505A30 heme domain [6]): 20%

c1c[nH]cn1 [imidazole]
Kd (CYP505A30 [12]): 723 µM

B1: CYP505A30 (Thermothelomyces thermophilus ATCC 42464) (protein)
chain: MADKTTETVPIPGPPGLPLVGNALAFDSELPLRTFQEFAEEYGEIYRLTLPTGTTLVVSSQALVHELCDDKRFKKPVAAALAEVRNGVNDGLFTAREEEPNWGIAHRILMPAFGPASIQGMFTEMHEIASQLALKWARHGPDTPIFVTDDFTRLTLDTLALCTMNFRFNSYYHDELHPFINAMGNFLTESGARAMRPAITSIFHQAANRKYWEDIEVLRKTAQGVLDTRRKHPTNRKDLLSAMLDGVDAKTGQKLSDSSIIDNLITFLIAGHETTSGLLSFAFYLLIKHQDAYRKAQEEVDRVIGKGPIKVEHIKKLPYIAAVLRETLRLCPTIPIINRAAKQDEVIGGKYAVAKDQRLALLLAQSHLDPAVYGETAKQFIPERMLDENFERLNREYPDCWKPFGTGMRACIGRPFAWQEAVLVMAMLLQNFDFVLHDPYYELHYKQTLTTKPKDFYMRAILRDGLTATELEHRLAGNAASVARSGGGGGGPSKPTAQKTSPAEAKPMSIFYGSNTGTCESLAQRLATDAASHGYAAAAVEPLDTATEKLPTDRPVVIITASFEGQPPDNAAKFCGWLKNLEGDELKNVSYAVFGCGHHDWSQTFHRIPKLVHQTMKAHGASPICDEGLTDVAEGNMFTDFEQWEDDVFWPAVRARYGAAGAVAETEDAPGSDGLNIHFSSPRSSTLRQDVREATVVGEALLTAPDAPPKKHIEVQLPDGATYKVGDYLAVLPVNSKESIGRVMRKFQLSWDSHVTIASDRWTALPTGTPVPAYDVLGSYVELSQPATKRGILRLADAAEDEATKAELQKLAGDLYTSEISLKRASVLDLLDRFPSISLPFGTFLSLLPPIRPRQYSISSSPLNDPSRATLTYSLLDSPSLANPSRRFVGVATSYLSSLVRGDKLLVSVRPTHTAFRLPDEDKMGETAIICVGAGSGLAPFRGFIQERAALLAKGTQLAAALLFYGCRSPEKDDLYRDEFDKWQESGAVDVRRAFSRVDSDDTEARGCRHVQDRLWHDREEVKALWDRGARVYVCGSRQVGEGVKTAMGRIVLGEEDAEDAISKWYETVRNDRYATDVFD
Km [13]: 9.2 ± 0.5 µM | kcat [13]: 2 ± 0.1 s⁻¹ | kcat/Km [13]: 220000 M⁻¹ s⁻¹ | Km [14]: 21.2 ± 2.4 µM | kcat [14]: 4.8 ± 0.2 s⁻¹ | kcat/Km [14]: 230000 M⁻¹ s⁻¹ | Km [15]: 7.7 ± 1.9 µM | kcat [15]: 1.2 ± 0.1 s⁻¹ | kcat/Km [15]: 160000 M⁻¹ s⁻¹ | Km [16]: 7.8 ± 2.1 µM | kcat [16]: 7.5 ± 0.7 s⁻¹ | kcat/Km [16]: 960000 M⁻¹ s⁻¹
